{
  "source": "patent US20230322822A1",
  "about": "“ARYL PHOSPHOROUS OXIDE COMPOUNDS AND USE THEREOF” (Chengdu Di'ao Jiuhong Pharmaceutical Factory, priority 2020, published 2023)",
  "key": {"[1]": {"tested_on": "BaF3 EML-4-ALK-L1196M cell line", "assay": "Cell anti-proliferation test 4 (CCK-8), BaF3 EML-4-ALK-L1196M", "format": "cell-based", "conditions": "Ba/F3 EML4-ALK-L1196M, BaF3 EML-4-ALK-L1196M cells, CCK-8, 72 hours", "procedure": "BaF3 EML-4-ALK-L1196M cell line, brand: KYinno, article number: KC-0102\nCell Counting Kit-8 (CCK-8), brand: Targetmol, article number: C0005\n10 μL of the compound diluted in gradient was added to the cell plate to give final concentrations of the compounds as 500, 166.67, 55.56, 18.52, 6.17, 2.06, 0.69, 0.23 and 0.08 nM. • d."}, "[2]": {"assay": "Pharmacokinetic test in SD rats", "format": "in vivo", "conditions": "male, Sprague-Dawley, rat, plasma, PO, 20 mg/kg", "procedure": "Six SD rats were taken, which were all male, and about 8-9 weeks old, weighing about 430 g/rat, and fasting but allowed to drink water for 18 hours.\nThe rats were divided into two groups, wherein the rats in group 1 were dosed with compound 2 and the rats in group 2 were dosed with control compound 4, both orally and intragastrically in a dose of 20 mg/kg. A lavage fluid was prepared using 70 mM citric acid buffer (pH 3.0) at an administration volume of 5 mL/kg.\n0.6 mL of blood (EDTA-2K anti-coagulated) was collected from rat orbits at 0.5, 1.5, 3, 4.5, 8, 12, 24, 36, 48 and 72 hours after the administration respectively. The plasma was separated and stored at −70° C., and the plasma samples were analyzed using liquid chromatography tandem mass spectrometry (LC-MS/MS). The plasma concentration-time data of the individual rates was analyzed using a non-compartmental model of DAS3.3.1 software and pharmacokinetic parameters of the test compounds were calculated."}},
  "note": "Read-outs that look alike come from different tables or passages of the source.",
  "data": [
    {"smiles": "CCc1cc(Nc2ncc(Br)c(Nc3ccc(C4CC4)cc3P(C)(C)=O)n2)c(OC)cc1N1CCC(N2CCN(C)CC2)CC1", "note": "[Control compound 4, reference compound]", "values": [
      {"measurement": "IC50", "setting": "[1]; first test, read-out: First test IC50", "value": 81.5, "unit": "nM"},
      {"measurement": "IC50", "setting": "[1]; second test, read-out: Second test IC50", "value": 74.6, "unit": "nM"},
      {"measurement": "AUC(0-t)", "setting": "[2]", "value": 58500, "unit": "ng·h/mL"},
      {"measurement": "Cmax", "setting": "[2]", "value": 1420, "unit": "ng/mL"}
    ]}
  ]
}
